Reference: EP4559908A1, “HETEROARYL DERIVATIVE COMPOUND AND USE THEREOF” (S2CBio Inc., priority 2022, dated 2024)

Biological target: T1, human ANO6 (variant 5) (Homo sapiens, UniProt Q4KMQ2)
T1 construct: expressed in transfected cells; host or cells: Fischer rat thyroid (FRT) cells
T1 sequence (Q4KMQ2 1-931 isoform Q4KMQ2-2): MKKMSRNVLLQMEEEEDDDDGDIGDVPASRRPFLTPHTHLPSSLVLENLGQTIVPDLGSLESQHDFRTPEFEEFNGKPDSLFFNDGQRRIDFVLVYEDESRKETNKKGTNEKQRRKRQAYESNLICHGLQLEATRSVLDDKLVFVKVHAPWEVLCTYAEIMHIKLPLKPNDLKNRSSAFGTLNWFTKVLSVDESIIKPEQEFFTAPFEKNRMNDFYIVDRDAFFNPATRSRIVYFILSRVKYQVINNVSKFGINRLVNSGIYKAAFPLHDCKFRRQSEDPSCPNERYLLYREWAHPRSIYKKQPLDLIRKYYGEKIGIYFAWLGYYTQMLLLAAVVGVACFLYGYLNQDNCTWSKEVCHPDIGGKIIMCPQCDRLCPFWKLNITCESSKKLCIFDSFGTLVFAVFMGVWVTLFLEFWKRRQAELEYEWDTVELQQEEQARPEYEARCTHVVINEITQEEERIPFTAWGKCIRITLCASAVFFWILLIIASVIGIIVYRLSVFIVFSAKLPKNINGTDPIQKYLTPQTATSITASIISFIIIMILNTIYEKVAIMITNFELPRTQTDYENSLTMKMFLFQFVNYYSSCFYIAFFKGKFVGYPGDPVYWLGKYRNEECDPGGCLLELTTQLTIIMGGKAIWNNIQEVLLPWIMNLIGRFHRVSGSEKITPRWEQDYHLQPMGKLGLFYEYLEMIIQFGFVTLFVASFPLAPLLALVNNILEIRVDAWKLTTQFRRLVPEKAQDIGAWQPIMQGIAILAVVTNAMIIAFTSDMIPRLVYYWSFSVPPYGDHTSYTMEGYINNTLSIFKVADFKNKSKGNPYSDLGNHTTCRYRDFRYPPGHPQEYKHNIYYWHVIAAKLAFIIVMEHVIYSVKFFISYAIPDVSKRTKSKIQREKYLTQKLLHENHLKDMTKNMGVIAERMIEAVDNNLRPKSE
Assay: Lact C2 assay (measuring phosphatidylserine externalization scramblase function)
Assay type: cell-based
Conditions: FRT, FRT cells expressing human ANO6 (variant 5), ionomycin 10 µM, Lact-C2-GFP fluorescence, average of three tests; for inhibition at 1 µM: compound 1 µM, read-out: % Inhibition 1 µM; for inhibition at 0.05 µM: compound 50 nM, read-out: % Inhibition 50 nM
Experimental: Ionomycin (Alomonelab, cat. # I-700), DAPI (Sigma- Aldrich, cat. # D8417), paraformaldehyde (Biosesang, cat. #P2031), Lionheart FX automated fluorescence microscope (BioTek), Gen5™ software program (BioTek), and Image J analysis software program.
After the incubation, the cells were treated with compounds dissolved in DMSO to 1% v/v in each well at each concentration (50 nM, 100 nM, and 1 µM) and reacted for 10 minutes. Thereafter, each well was treated with ionomycin to a final concentration of 10 µM, allowed to react for 10 minutes, and then washed with 200 µL PBS. After washing, each well was treated with 50 µL of Lactadherin-C2 (Lact-C2)-GFP mixed in DMEM medium to a final concentration of 500 nM to stain phosphatidylserine, and cultured at 37°C for 10 minutes. After completion of the reaction, the cells were washed with 200 µL PBS, and fixed with 4% paraformaldehyde for 5 minutes at room temperature. For morphological analysis, DAPI solution was added, and the cells were incubated for 15 minutes, followed by washing with PBS. The fluorescence intensity of Lact-C2-GFP bound to phosphatidylserine on the cell surface was measured using an automated fluorescence microscope. For quantitative analysis of the fluorescence intensity of Lact-C2-GFP, BioTek Gen5™ software and Image J analysis software programs were used.
Phosphatidylserine externalization inhibitory activity (%) by the compound was calculated through the following analysis method. Specifically, the background fluorescence value was subtracted from the measured Lact-C2-GFP fluorescence value, and the fluorescence value of the ionomycin non-treatment group and the ionomycin-treatment group in the same row where each test group was located in a 96-well microplate were calculated. In order to calculate the inhibitory activity (%) by the compound, the relative inhibitory activity was calculated by setting the compound and ionomycin non-treatment group to 100% inhibitory activity and the ionomycin alone treatment group to 0% inhibitory activity.

COC(=O)c1ccc2nc(-c3cccc(Nc4ccc(-c5ncccn5)cc4)c3)[nH]c2c1 [Example 78, methyl 2-(3-((4-(pyrimidin-2-yl)phenyl)amino)phenyl)-1H-benzo[d]imidazol-6-carboxylate]
inhibition at 1 µM: > 60%

FC(F)(F)c1cc2[nH]c(-c3cccc(Nc4ccc(-c5cccnn5)cc4)c3)nc2cn1 [Example 79, N-(4-(pyridazin-3-yl)phenyl)-3-(6-(trifluoromethyl)-1H-imidazolo[4,5-c]pyridin-2-yl)aniline]
inhibition at 0.05 µM: > 60%

Fc1cc2nc(-c3cccc(Nc4ccc(-c5cccnn5)cc4)c3)[nH]c2cc1F [Example 81, 3-(5,6-difluoro-1H-benzo[d]imidazol-2-yl)-N-(4-pyridazin-3-ylphenyl)aniline]
inhibition at 0.05 µM: > 60%

Clc1ccc2nc(-c3cccc(Nc4ncc(-c5ccccn5)cn4)c3)[nH]c2c1 [Example 82, N-[3-(6-chloro-1H-benzo[d]imidazol-2-yl)phenyl]-5-(2-pyridyl)pyrimidin-2-amine]
inhibition at 0.05 µM: > 60%

FC(F)(F)c1ccc2nc(-c3cccc(Nc4ncc(-c5ccccn5)cn4)c3)[nH]c2c1 [Example 83, 5-(2-pyridyl)-N-[3-[6-(trifluoromethyl)-1H-benzo[d]imidazol-2-yl]phenyl]pyrimidin-2-amine]
inhibition at 0.05 µM: > 60%

Clc1cc2[nH]c(-c3cccc(Nc4ccc(-c5cccnn5)cc4)c3)nc2cn1 [Example 84, 3-(6-chloro-1H-imidazo[4,5-c]pyridin-2-yl)-N-(4-pyridazin-3-ylphenyl)aniline]
inhibition at 1 µM: > 60%

FC(F)(F)c1cc2[nH]c(-c3cccc(Nc4ccc(-c5ccncn5)cc4)c3)nc2cn1 [Example 86, N-(4-pyrimidin-4-ylphenyl)-3-[6-(trifluoromethyl)-1H-imidazo[4,5-c]pyridin-2-yl]aniline]
inhibition at 1 µM: > 60%

FC(F)(F)c1ccc2nc(-c3cccc(Nc4ccc(-c5ccncn5)cn4)c3)[nH]c2c1 [Example 88, 5-pyrimidin-4-yl-N-[3-[6-(trifluoromethyl)-1H-benzo[d]imidazol-2-yl]phenyl]pyridin-2-amine]
inhibition at 0.05 µM: > 60% | inhibition at 1 µM: > 60%

FC(F)(F)c1cc2[nH]c(-c3cccc(Nc4ccc(-c5ccncn5)cn4)c3)nc2cn1 [Example 89, 5-pyrimidin-4-yl-N-[3-[6-(trifluoromethyl)-1H-imidazo[4,5-c]pyridin-2-yl]phenyl]pyridin-2-amine]
inhibition at 0.05 µM: 30 to 60% | inhibition at 1 µM: > 60%

Fc1ccc2nc(-c3cccc(Nc4ccc(-c5ccccn5)cc4)c3)[nH]c2c1 [Example 92, 3-(6-fluoro-1H-benzo[d]imidazol-2-yl)-N-[4-(2-pyridyl)phenyl]aniline]
inhibition at 0.05 µM: > 60% | inhibition at 1 µM: > 60%

Cc1noc(-c2ccc3nc(-c4cccc(Nc5ccc(-c6cccnn6)cc5)c4)[nH]c3c2)n1 [Example 93, 3-(6-(3-methyl-1,2,4-oxadiazol-5-yl)-1H-benzo[d]imidazol-2-yl)-N-(4-(pyridazin-3-yl)phenyl)aniline]
inhibition at 0.05 µM: 30 to 60% | inhibition at 1 µM: > 60%

c1cc(Nc2ccc(-c3ccnnc3)cc2)cc(-c2nc3ccccc3[nH]2)c1 [Example 94, 3-(1H-benzo[d]imidazol-2-yl)-N-(4-pyridazin-4-ylphenyl)aniline]
inhibition at 1 µM: > 60%

Fc1cc2nc(-c3cccc(Nc4ccc(-c5ccncn5)cc4)c3)[nH]c2cc1F [Example 95, 3-(5,6-difluoro-1H-benzo[d]imidazol-2-yl)-N-(4-pyrimidin-4-ylphenyl)aniline]
inhibition at 0.05 µM: > 60% | inhibition at 1 µM: > 60%

Fc1ccc2nc(-c3cccc(Nc4ccc(-c5ccncn5)cc4)c3)[nH]c2c1 [Example 96, 3-(6-fluoro-1H-benzo[d]imidazol-2-yl)-N-(4-pyrimidin-4-ylphenyl)aniline]
inhibition at 0.05 µM: > 60% | inhibition at 1 µM: > 60%

c1cc(Nc2ccc(C3CCCCC3)cc2)cc(-c2nc3ccccc3[nH]2)c1 [Example 97, 3-(1H-benzo[d]imidazol-2-yl)-N-(4-cyclohexylphenyl)aniline]
inhibition at 1 µM: > 60%

FC(F)(F)c1ccc2nc(-c3cccc(Nc4ccc(-c5ccccn5)cc4)c3)[nH]c2c1 [Example 98, N-[4-(2-pyridyl)phenyl]-3-[6-(trifluoromethyl)-1H-benzo[d]imidazol-2-yl]aniline]
inhibition at 0.05 µM: > 60% | inhibition at 1 µM: > 60%

Fc1cc2nc(-c3cccc(Nc4ncc(-c5cccnn5)cn4)c3)[nH]c2cc1F [Example 99, N-[3-(5,6-difluoro-1H-benzo[d]imidazol-2-yl)phenyl]-5-pyridazin-3-yl-pyrimidin-2-amine]
inhibition at 0.05 µM: 30 to 60% | inhibition at 1 µM: > 60%

FC(F)(F)c1ccc2nc(-c3cccc(Nc4ccc(-c5ncccn5)cn4)c3)[nH]c2c1 [Example 100, 5-pyrimidin-2-yl-N-[3-[6-(trifluoromethyl)-1H-benzo[d]imidazol-2-yl]phenyl]pyridin-2-amine]
inhibition at 0.05 µM: > 60% | inhibition at 1 µM: > 60%

Cc1cccc2nc(-c3cccc(Nc4ccc(-c5cccnn5)cc4)c3)[nH]c12 [Example 101, 3-(7-methyl-1H-benzo[d]imidazol-2-yl)-N-(4-pyridazin-3-ylphenyl)aniline]
inhibition at 0.05 µM: > 60% | inhibition at 1 µM: > 60%

Fc1cc2[nH]c(-c3cccc(Nc4ccc(-c5cccnn5)cc4)c3)nc2cc1Cl [Example 102, 3-(5-chloro-6-fluoro-1H-benzo[d]imidazol-2-yl)-N-(4-pyridazin-3-ylphenyl)aniline]
inhibition at 0.05 µM: > 60% | inhibition at 1 µM: > 60%

FC(F)(F)c1cc2[nH]c(-c3cccc(Nc4ncc(-c5cccnn5)cn4)c3)nc2cn1 [Example 103, 5-pyridazin-3-yl-N-[3-[6-(trifluoromethyl)-1H-imidazo[4,5-c]pyridin-2-yl]phenyl]pyrimidin-2-amine]
inhibition at 1 µM: > 60%

Fc1cc2[nH]c(-c3cccc(Nc4ccc(-c5cccnn5)cc4)c3)nc2cc1C(F)(F)F [Example 104, 3-[6-fluoro-5-(trifluoromethyl)-1H-benzo[d]imidazol-2-yl]-N-(4-pyridazin-3-ylphenyl)aniline]
inhibition at 0.05 µM: > 60% | inhibition at 1 µM: > 60%

Cc1ccc2nc(-c3cccc(Nc4ccc(-c5cccnn5)cc4)c3)[nH]c2c1 [Example 105, 3-(6-methyl-1H-benzo[d]imidazol-2-yl)-N-(4-pyridazin-3-ylphenyl)aniline]
inhibition at 0.05 µM: > 60% | inhibition at 1 µM: > 60%

CC(C)(C)c1ccc2nc(-c3cccc(Nc4ccc(-c5cccnn5)cc4)c3)[nH]c2c1 [Example 107, 3-(6-tert-butyl-1H-benzo[d]imidazol-2-yl)-N-(4-pyridazin-3-ylphenyl)aniline]
inhibition at 0.05 µM: 30 to 60% | inhibition at 1 µM: > 60%

COc1ccc2nc(-c3cccc(Nc4ncc(-c5cccnn5)cn4)c3)[nH]c2c1 [Example 108, N-[3-(6-methoxy-1H-benzo[d]imidazol-2-yl)phenyl]-5-pyridazin-3-yl-pyrimidin-2-amine]
inhibition at 1 µM: 30 to 60%

FC(F)(F)Oc1ccc2nc(-c3cccc(Nc4ccc(-c5ccncn5)cc4)c3)[nH]c2c1 [Example 109, N-(4-pyrimidin-4-ylphenyl)-3-[6-(trifluoromethoxy)-1H-benzo[d]imidazol-2-yl]aniline]
inhibition at 0.05 µM: > 60% | inhibition at 1 µM: > 60%
